The values below come from paper PMC9411207, “Designed peptides as nanomolar cross-amyloid inhibitors acting via supramolecular nanofiber co-assembly” (Nature Communications, 2022).

Read-outs that look alike come from different tables or passages of the source. Square brackets hold non-standard residues; d marks the D form. Peptide text beside a SMILES is read from it. NMeF = CN[C@@H](Cc1ccccc1)C(=O)O; NMeL = CN[C@@H](CC(C)C)C(=O)O; NMeV = CN[C@H](C(=O)O)C(C)C; Nle = CCCC[C@H](N)C(=O)O

For data set [1], the system named is RIN5fm cells. The experiment in a line: MTT reduction assay: effects of peptides on formation of cell-damaging IAPP assemblies (incl. IC50 titrations). The class given is cell-based, rat. To be noted: for IC50: 24 h; for effect on IAPP cytotoxicity (in words): MTT reduction in RIN5fm cells, solutions of the ThT assay. The method, then: Briefly, cells were cultivated and platted in 96-well plates as described in ref. [68]. Aliquots of solutions used for the ThT binding assays (see “ThT binding assays”) were diluted with cell medium at the indicated incubation time points (24 h or 7 days) and added to the cells at the indicated final concentrations. Following incubation with the cells for ~20 h (37 °C, humidified atmosphere, 5% CO2), cell damage was assessed by measuring cellular MTT reduction as described[32],[68]. IC50 values were determined as described[20],[21],[32].

For data set [2], the target named is T1, N-terminal FITC-labeled Aβ42 (Homo sapiens, UniProt P05067).
T1 construct: the 40(42)-residue peptide Aβ40(42); purchased Bachem
T1 sequence (P05067 672-713 limits assumed): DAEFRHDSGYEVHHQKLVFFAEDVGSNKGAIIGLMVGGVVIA
The experiment in a line: Fluorescence spectroscopic titration of FITC-Aβ42 with ACMs. The class given is binding. The procedure:
(§1) Fluorescence spectroscopic studies were performed with a Jasco FP-6500 fluorescence spectrophotometer (software: Spectra Manager V1.54.03 (Build 1)) using previously established protocols[12],[20],[25],[26],[32]. Briefly, excitation was at 492 nm and spectra were measured between 500 and 600 nm. All titrations were performed in freshly made solutions of synthetic N-terminal fluorescently-labeled peptide (5 nM) and various amounts of unlabeled peptide in 10 mM sodium phosphate buffer, pH 7.4 (1% HFIP) within 2–5 min following solution preparation as described in refs. [20], [25], [26]. Under these experimental conditions, freshly made solutions of Fluos-IAPP and FITC-Aβ42 (5 nM) consist mostly of monomers[25],[26],[32] and the same was found for Fluos-ACMs (5 nM) (e.g., Supplementary Fig. 5e). Apparent binding affinities (app. KDs) were estimated by using 1/1 binding models (software: OriginPro 2016G, Origin 2021, and GraFit (v.5)) as described in refs. [20], [25], [26], [32]. However, due to the high self-assembly propensities of involved peptides, more complex models might also apply. Determined app. KDs are means (±SD) from three binding curves derived from three independent titration assays.

Data set [3] deals with T2, N-terminal fluorescein-labeled IAPP (Homo sapiens, UniProt P10997).
T2 construct: made in house; host or cells: chemical synthesis (Fmoc-SPPS)
T2 sequence (P10997 34-70 limits assumed): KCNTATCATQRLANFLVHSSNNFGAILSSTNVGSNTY
The experiment in a line: Fluorescence spectroscopic titration of Fluos-IAPP with ACMs. The data set is classed as binding. The method, then:
as §1

Data set [4] relates to PC12 cells. Briefly: MTT reduction assay: cytotoxicity of preformed (TAMRA-)Aβ42 oligomers with or without Nle3-VF. The data set is classed as cell-based. The conditions noted are these: TAMRA-oAb42 (2 h); mean, n = 4. The procedure:
Preformed (TAMRA-)oAβ42 and their mixtures with Nle3-VF were then incubated for an additional 2 h (37 °C, shaking 500 rpm; conditions as for the ThT binding assay). Incubation with the cells and the MTT reduction assay were performed as above. Statistical analysis (Supplementary Fig. 27d) was performed by one-way ANOVA and Bonferroni (software: OriginPro 2021).

Where [5] appears, read: Table 2, mean values of the 3 curves, read-out: App. Kd.
Where [6] appears, read: app. KD (±SD) of ACM/Aβ42 interactions, titration of FITC-Aβ42 (5 nM; pH 7.4) with ACMs, means (±SD) from three binding curves.
[7] abbreviates: SF 6, Mean values of the 3 curves, read-out: App. Kd.
The mark [8] stands for this setting: titration of Fluos-IAPP (5 nM; pH 7.4, 10 mM sodium phosphate, 1% HFIP) with ACMs, 1/1 binding model, means (±SD) from three binding curves.

`CCCC[C@H](NC(=O)[C@H](CC(C)C)NC(=O)CNC(=O)[C@@H](NC(=O)[C@@H](NC(=O)[C@H](C)NC(=O)CNC(=O)[C@H](CCCCN)NC(=O)[C@H](CC(N)=O)NC(=O)[C@H](Cc1ccccc1)NC(=O)[C@H](Cc1ccccc1)NC(=O)[C@H](Cc1ccccc1)NC(=O)[C@H](CC(=O)O)NC(=O)[C@H](CCC(=O)O)NC(=O)[C@H](C)NC(=O)[C@H](Cc1ccccc1)NC(=O)[C@H](Cc1ccccc1)N(C)C(=O)[C@@H](NC(=O)[C@H](CC(C)C)N(C)C(=O)[C@H](CCCCN)NC(=O)[C@@H](N)CCC(N)=O)C(C)C)[C@@H](C)CC)[C@@H](C)CC)C(=O)N[C@H](C(=O)NCC(=O)NCC(=O)N[C@H](C(=O)N[C@H](C(=O)O)C(C)C)C(C)C)C(C)C` [F3-LF] (H-QK[NMeL]V[NMeF]FAEDFFFNKGAIIGL[Nle]VGGVV-OH) displayed an IC50 in data set [1] of 41.7 nM. The Kd in data set [2] (setting [5]) was determined as 431 nM; in data set [2] (setting [6]), 431 nM; in data set [3] (setting [7]) it was 37.6 nM; in data set [3] (setting [8]) it was 37.6 nM.

Take `CCCC[C@H](NC(=O)[C@H](CC(C)C)NC(=O)CNC(=O)[C@@H](NC(=O)[C@@H](NC(=O)[C@H](C)NC(=O)CNC(=O)[C@H](CCCCN)NC(=O)[C@H](CC(N)=O)NC(=O)[C@H](Cc1ccccc1)NC(=O)[C@H](Cc1ccccc1)NC(=O)[C@H](Cc1ccccc1)NC(=O)[C@H](CC(=O)O)NC(=O)[C@H](CCC(=O)O)NC(=O)[C@H](C)NC(=O)[C@H](Cc1ccccc1)N(C)C(=O)[C@H](Cc1ccccc1)NC(=O)[C@H](C(C)C)N(C)C(=O)[C@H](CC(C)C)NC(=O)[C@H](CCCCN)NC(=O)[C@@H](N)CCC(N)=O)[C@@H](C)CC)[C@@H](C)CC)C(=O)N[C@H](C(=O)NCC(=O)NCC(=O)N[C@H](C(=O)N[C@H](C(=O)O)C(C)C)C(C)C)C(C)C` [F3-VF] (H-QKL[NMeV]F[NMeF]AEDFFFNKGAIIGL[Nle]VGGVV-OH): the IC50 in data set [1] is 78.5 nM. In addition, the Kd in data set [2] (setting [5]) stood at 161 nM; in data set [2] (setting [6]) it was 161 nM; in data set [3] (setting [7]), 15 nM; in data set [3] (setting [8]), 15 nM.

For the compound `CCCC[C@H](NC(=O)[C@H](CC(C)C)NC(=O)CNC(=O)[C@@H](NC(=O)[C@@H](NC(=O)[C@H](C)NC(=O)CNC(=O)[C@H](CCCCN)NC(=O)[C@H](CC(N)=O)NC(=O)[C@H](CC(C)C)NC(=O)[C@H](CC(C)C)NC(=O)[C@H](CC(C)C)NC(=O)[C@H](CC(=O)O)NC(=O)[C@H](CCC(=O)O)NC(=O)[C@H](C)NC(=O)[C@H](Cc1ccccc1)NC(=O)[C@H](Cc1ccccc1)N(C)C(=O)[C@@H](NC(=O)[C@H](CC(C)C)N(C)C(=O)[C@H](CCCCN)NC(=O)[C@@H](N)CCC(N)=O)C(C)C)[C@@H](C)CC)[C@@H](C)CC)C(=O)N[C@H](C(=O)NCC(=O)NCC(=O)N[C@H](C(=O)N[C@H](C(=O)O)C(C)C)C(C)C)C(C)C` [L3-LF] (H-QK[NMeL]V[NMeF]FAEDLLLNKGAIIGL[Nle]VGGVV-OH), the IC50 in data set [1] is 133 nM. Besides, the “effect on IAPP cytotoxicity (in words)” value in data set [1] is “fully suppressed”. The values for the Kd in data set [2] (setting [5]) and in data set [3] (setting [7]) were 2.64 nM and 143 nM, respectively.

For the compound `CCCC[C@H](NC(=O)[C@H](CC(C)C)NC(=O)CNC(=O)[C@@H](NC(=O)[C@@H](NC(=O)[C@H](C)NC(=O)CNC(=O)[C@H](CCCCN)NC(=O)[C@H](CC(N)=O)NC(=O)[C@H](CC(C)C)NC(=O)[C@H](CC(C)C)NC(=O)[C@H](CC(C)C)NC(=O)[C@H](CC(=O)O)NC(=O)[C@H](CCC(=O)O)NC(=O)[C@H](C)NC(=O)[C@H](Cc1ccccc1)N(C)C(=O)[C@H](Cc1ccccc1)NC(=O)[C@H](C(C)C)N(C)C(=O)[C@H](CC(C)C)NC(=O)[C@H](CCCCN)NC(=O)[C@@H](N)CCC(N)=O)[C@@H](C)CC)[C@@H](C)CC)C(=O)N[C@H](C(=O)NCC(=O)NCC(=O)N[C@H](C(=O)N[C@H](C(=O)O)C(C)C)C(C)C)C(C)C` [L3-VF] (H-QKL[NMeV]F[NMeF]AEDLLLNKGAIIGL[Nle]VGGVV-OH), in data set [1], half-maximal inhibition (IC50) was put at 112 nM. Moreover, the Kd was determined as 38 nM in data set [2] (setting [5]), 38 nM in data set [2] (setting [6]), 77.3 nM in data set [3] (setting [7]) and 77.3 nM in data set [3] (setting [8]).

For `CCCC[C@H](NC(=O)[C@H](CC(=O)O)NC(=O)[C@H](CCC(=O)O)NC(=O)[C@H](C)NC(=O)[C@H](Cc1ccccc1)NC(=O)[C@H](Cc1ccccc1)N(C)C(=O)[C@@H](NC(=O)[C@H](CC(C)C)N(C)C(=O)[C@H](CCCCN)NC(=O)[C@@H](N)CCC(N)=O)C(C)C)C(=O)N[C@@H](CCCC)C(=O)N[C@@H](CCCC)C(=O)N[C@@H](CC(N)=O)C(=O)N[C@@H](CCCCN)C(=O)NCC(=O)N[C@@H](C)C(=O)N[C@H](C(=O)N[C@H](C(=O)NCC(=O)N[C@@H](CC(C)C)C(=O)N[C@@H](CCCC)C(=O)N[C@H](C(=O)NCC(=O)NCC(=O)N[C@H](C(=O)N[C@H](C(=O)O)C(C)C)C(C)C)C(C)C)[C@@H](C)CC)[C@@H](C)CC` [Nle3-LF] (H-QK[NMeL]V[NMeF]FAED[Nle][Nle][Nle]NKGAIIGL[Nle]VGGVV-OH), in data set [1], the IC50 came to 82.1 nM. In addition, the “effect on IAPP cytotoxicity (in words)” value in data set [1] was “fully suppressed”. Further, the Kd came out at 11.1 nM in data set [2] (setting [5]), 11.1 nM in data set [2] (setting [6]), 55.4 nM in data set [3] and 55.4 nM in data set [3] (setting [7]).

In turn, `CCCC[C@H](NC(=O)[C@H](CC(=O)O)NC(=O)[C@H](CCC(=O)O)NC(=O)[C@H](C)NC(=O)[C@H](Cc1ccccc1)N(C)C(=O)[C@H](Cc1ccccc1)NC(=O)[C@H](C(C)C)N(C)C(=O)[C@H](CC(C)C)NC(=O)[C@H](CCCCN)NC(=O)[C@@H](N)CCC(N)=O)C(=O)N[C@@H](CCCC)C(=O)N[C@@H](CCCC)C(=O)N[C@@H](CC(N)=O)C(=O)N[C@@H](CCCCN)C(=O)NCC(=O)N[C@@H](C)C(=O)N[C@H](C(=O)N[C@H](C(=O)NCC(=O)N[C@@H](CC(C)C)C(=O)N[C@@H](CCCC)C(=O)N[C@H](C(=O)NCC(=O)NCC(=O)N[C@H](C(=O)N[C@H](C(=O)O)C(C)C)C(C)C)C(C)C)[C@@H](C)CC)[C@@H](C)CC` [Nle3-VF] (H-QKL[NMeV]F[NMeF]AED[Nle][Nle][Nle]NKGAIIGL[Nle]VGGVV-OH) yielded an IC50 in data set [1] of 65 nM. In addition, the “effect on IAPP cytotoxicity (in words)” value in data set [1] is reported as “fully suppressed”. For the same compound, the Kd in data set [2] (setting [6]) is 14.5 nM; in data set [2] (fluorescence titration, emission at 519 nm, Mean values of the 3 curves, read-out: App. Kd) it was 14.5 nM; in data set [3] (Fig. 2a right panel, mean values of the 3 curves, read-out: App. Kd), 69.5 nM.

TAMRA-oAb42: the “MTT reduction (% control)” value in data set [4] was found to be 66.7213 % control.
